Here are results for 55 molecules from patent US8569509B2, “Thiazole-4-carboxylic acid esters and thioesters as plant protection agents” (priority 2008, dated 2013).

The nature of one series: log P determination (HPLC, calibration with unbranched alkan-2-ones). The class given is physicochemical. The settings on record: * LC-MS determination in the acidic range at pH 2.7, 0.1% aqueous formic acid and acetonitrile, linear gradient 10% to 95% acetonitrile, reversed-phase C 18. The method, then:
The calibration is carried out using unbranched alkan-2-ones (having 3 to 16 carbon atoms) with known log P values (determination of the log P values by the retention times using linear interpolation between two successive alkanones). The lambda-maX values were determined in the maxima of the chromatographic signals using the UV spectra from 200 nm to 400 nm.
With `O=C(OCCc1ccc(F)cc1)c1csc(C2CCN(C(=O)Cn3ccc(C(F)(F)F)n3)CC2)n1` [compound 126], the log p is reported as 3.27*. The same measure, in the same setting: under `O=C(Oc1ccccc1)c1csc(C2CCN(C(=O)Cn3ccc(C(F)(F)F)n3)CC2)n1` [compound 127] stands 2.85*; under `O=C(Oc1ccc(F)cc1)c1csc(C2CCN(C(=O)Cn3ccc(C(F)(F)F)n3)CC2)n1` [compound 128], 2.89*; under `O=C(OCc1ccncc1)c1csc(C2CCN(C(=O)Cn3ccc(C(F)(F)F)n3)CC2)n1` [compound 142], 1.32*. As to `O=C(OCc1cccs1)c1csc(C2CCN(C(=O)Cn3ccc(C(F)(F)F)n3)CC2)n1` [compound 143], the log p is reported as 2.85*.

On to `Cc1c(Cl)c(C(F)(F)F)nn1CC(=O)N1CCC(c2nc(C(=O)OC[Si](C)(C)C)cs2)CC1` [compound 144], for which the log p is listed as 4.28*. Turning to `Cc1c(Cl)c(C(F)(F)F)nn1CC(=O)N1CCC(c2nc(C(=O)OC3CCCCC3)cs2)CC1` [compound 145], the log p is 4.17*.

As to `Cc1c(Cl)c(C(F)(F)F)nn1CC(=O)N1CCC(c2nc(C(=O)OC3CCCC3)cs2)CC1` [compound 146], the log p is 3.84*.

In the case of `Cc1c(Cl)c(C(F)(F)F)nn1CC(=O)N1CCC(c2nc(C(=O)OC3CCCc4ccccc43)cs2)CC1` (stereo not shown) [compound 149], the log p was 4.40*. `Cc1c(Cl)c(C(F)(F)F)nn1CC(=O)N1CCC(c2nc(C(=O)OC3CCCC4CCCCC43)cs2)CC1` (stereo not shown) [compound 150]: the log p is 5.44*. As for `Cc1c(Cl)c(C(F)(F)F)nn1CC(=O)N1CCC(c2nc(C(=O)OC3CCc4ccccc43)cs2)CC1` (stereo not shown) [compound 151], the log p is listed as 4.17*. With `Cc1c(Cl)c(C(F)(F)F)nn1CC(=O)N1CCC(c2nc(C(=O)Oc3cccc4ccccc34)cs2)CC1` [compound 152], the log p is reported as 4.17*. Still for that read-out and setting: under `Cc1c(Cl)c(C(F)(F)F)nn1CC(=O)N1CCC(c2nc(C(=O)Oc3ccc4ccccc4c3)cs2)CC1` [compound 153] stands 4.17*. The same measure, in the same setting: under `Cc1c(Cl)c(C(F)(F)F)nn1CC(=O)N1CCC(c2nc(C(=O)OCc3ccccc3)cs2)CC1` [compound 154] stands 3.73*.

On to `Cc1c(Cl)c(C(F)(F)F)nn1CC(=O)N1CCC(c2nc(C(=O)OCc3ccc(F)cc3)cs2)CC1` [compound 155], for which the log p is listed as 3.73*. Still for that read-out and setting: under `Cc1c(Cl)c(C(F)(F)F)nn1CC(=O)N1CCC(c2nc(C(=O)OC(C)c3ccc(F)cc3)cs2)CC1` (stereo not shown) [compound 184] stands 3.89*.

As for `Cc1c(Cl)c(C(F)(F)F)nn1CC(=O)N1CCC(c2nc(C(=O)OCCc3ccc(F)cc3)cs2)CC1` [compound 186], the log p was 3.94*. Still for that read-out and setting: the value for `Cc1c(Cl)c(C(F)(F)F)nn1CC(=O)N1CCC(c2nc(C(=O)Oc3ccccc3)cs2)CC1` [compound 187] was 3.58*; that for `Cc1c(Cl)c(C(F)(F)F)nn1CC(=O)N1CCC(c2nc(C(=O)Oc3ccc(F)cc3)cs2)CC1` [compound 188] was 3.63*; that for `Cc1c(Cl)c(C(F)(F)F)nn1CC(=O)N1CCC(c2nc(C(=O)OCc3ccncc3)cs2)CC1` [compound 217] was 1.82*. As for `Cc1c(Cl)c(C(F)(F)F)nn1CC(=O)N1CCC(c2nc(C(=O)OCc3cccs3)cs2)CC1` [compound 218], the log p is recorded as 3.58*.

The series is the same for the next values; noted with them: * LC-MS determination in the acidic range, pH 2.7, 0.1% aqueous formic acid and acetonitrile, linear gradient 10% to 95% acetonitrile.
In the case of `Cc1cc(C(F)(F)F)nn1CC(=O)N1CCC(c2nc(C(=O)OC3CCCC3)cs2)CC1` [compound 3], the log p was 3.40*. Same read-out and setting: the value for `Cc1cc(C(F)(F)F)nn1CC(=O)N1CCC(c2nc(C(=O)OC3CCc4ccccc43)cs2)CC1` (stereo not shown) [compound 8] was 3.76*. Same read-out and setting: under `Cc1cc(C(F)(F)F)nn1CC(=O)N1CCC(c2nc(C(=O)Oc3ccc4ccccc4c3)cs2)CC1` [compound 10] stands 3.84*; under `Cc1cc(C(F)(F)F)nn1CC(=O)N1CCC(c2nc(C(=O)OCc3ccc(F)cc3)cs2)CC1` [compound 12], 3.35*; under `Cc1cc(C(F)(F)F)nn1CC(=O)N1CCC(c2nc(C(=O)OCc3ccccc3)cs2)CC1` [compound 15], 3.37*.

Take `Cc1cc(C(F)(F)F)nn1CC(=O)N1CCC(c2nc(C(=O)OCc3ccc(Cl)cc3)cs2)CC1` [compound 17]: the log p was 3.73*. Same read-out and setting: the value for `Cc1ccc(COC(=O)c2csc(C3CCN(C(=O)Cn4nc(C(F)(F)F)cc4C)CC3)n2)cc1` [compound 18] was 4.21*; that for `COc1ccc(COC(=O)c2csc(C3CCN(C(=O)Cn4nc(C(F)(F)F)cc4C)CC3)n2)cc1` [compound 19] was 3.30*; that for `Cc1cc(C(F)(F)F)nn1CC(=O)N1CCC(c2nc(C(=O)OCc3ccc(Cl)cc3Cl)cs2)CC1` [compound 20] was 3.69*. `Cc1cc(C(F)(F)F)nn1CC(=O)N1CCC(c2nc(C(=O)OCc3cc(Cl)cc(Cl)c3)cs2)CC1` [compound 21]: the log p was 4.24*. Same read-out and setting: the value for `Cc1cc(C(F)(F)F)nn1CC(=O)N1CCC(c2nc(C(=O)OCc3c(Cl)cccc3Cl)cs2)CC1` [compound 22] was 3.94*; that for `Cc1cc(C(F)(F)F)nn1CC(=O)N1CCC(c2nc(C(=O)OCc3cccc(Cl)c3)cs2)CC1` [compound 24] was 3.72*; that for `Cc1cc(C(F)(F)F)nn1CC(=O)N1CCC(c2nc(C(=O)OCc3cccc(C(F)(F)F)c3)cs2)CC1` [compound 25] was 3.81*. Still for that read-out and setting: under `Cc1cc(C(F)(F)F)nn1CC(=O)N1CCC(c2nc(C(=O)OCc3ccc([N+](=O)[O-])cc3)cs2)CC1` [compound 28] stands 3.22*; under `Cc1cc(C(F)(F)F)nn1CC(=O)N1CCC(c2nc(C(=O)OCc3ccc(C(C)(C)C)cc3)cs2)CC1` [compound 29], 4.57*. Same read-out and setting: under `Cc1ccccc1COC(=O)c1csc(C2CCN(C(=O)Cn3nc(C(F)(F)F)cc3C)CC2)n1` [compound 31] stands 3.62*. As for `Cc1cc(C(F)(F)F)nn1CC(=O)N1CCC(c2nc(C(=O)OC(C)c3ccc(F)cc3)cs2)CC1` (stereo not shown) [compound 41], the log p was 3.60*. Still for that read-out and setting: the value for `CCC(OC(=O)c1csc(C2CCN(C(=O)Cn3nc(C(F)(F)F)cc3C)CC2)n1)c1ccc(F)cc1` (stereo not shown) [compound 42] was 3.89*; that for `Cc1cc(C(F)(F)F)nn1CC(=O)N1CCC(c2nc(C(=O)OCCc3ccc(F)cc3)cs2)CC1` [compound 43] was 3.55*. The same measure, in the same setting: the value for `Cc1cc(C(F)(F)F)nn1CC(=O)N1CCC(c2nc(C(=O)Oc3ccccc3)cs2)CC1` [compound 44] was 3.20*; that for `Cc1cc(C(F)(F)F)nn1CC(=O)N1CCC(c2nc(C(=O)Oc3ccc(F)cc3)cs2)CC1` [compound 45] was 3.26*; that for `Cc1cc(C(F)(F)F)nn1CC(=O)N1CCC(c2nc(C(=O)OCc3ccccn3)cs2)CC1` [compound 80] was 2.21*. On the same count and under the same terms, under `Cc1cc(C(F)(F)F)nn1CC(=O)N1CCC(c2nc(C(=O)OCc3cccs3)cs2)CC1` [compound 81] stands 3.22*; under `C[Si](C)(C)COC(=O)c1csc(C2CCN(C(=O)Cn3ccc(C(F)(F)F)n3)CC2)n1` [compound 84], 3.53*; under `O=C(OC1CCCCC1)c1csc(C2CCN(C(=O)Cn3ccc(C(F)(F)F)n3)CC2)n1` [compound 85], 3.42*. In the case of `O=C(OC1CCCc2ccccc21)c1csc(C2CCN(C(=O)Cn3ccc(C(F)(F)F)n3)CC2)n1` (stereo not shown) [compound 89], the log p is recorded as 3.68*. With `O=C(OC1CCc2ccccc21)c1csc(C2CCN(C(=O)Cn3ccc(C(F)(F)F)n3)CC2)n1` (stereo not shown) [compound 91], the log p is recorded as 3.37*. On the same count and under the same terms, the value for `O=C(Oc1cccc2ccccc12)c1csc(C2CCN(C(=O)Cn3ccc(C(F)(F)F)n3)CC2)n1` [compound 92] was 3.42*. The same measure, in the same setting: under `O=C(OCc1ccccc1)c1csc(C2CCN(C(=O)Cn3ccc(C(F)(F)F)n3)CC2)n1` [compound 94] stands 2.99*. The same measure, in the same setting: under `O=C(OCc1ccc(F)cc1)c1csc(C2CCN(C(=O)Cn3ccc(C(F)(F)F)n3)CC2)n1` [compound 95] stands 3.04*; under `CC(OC(=O)c1csc(C2CCN(C(=O)Cn3ccc(C(F)(F)F)n3)CC2)n1)c1ccc(F)cc1` (stereo not shown) [compound 124], 3.18*.

Still in this series, the particulars now being: pH 2.7; read-out: log P (pH 2.7).
Consider `Cc1cc(C(F)(F)F)nn1CC(=O)N1CCC(c2nc(C(=O)SCc3ccc(F)cc3)cs2)CC1` [compound 27, S-(4-Fluorobenzyl) 2-(1-{[5-methyl-3-(trifluoromethyl)-1H-pyrazol-1-yl]acetyl}piperidin-4-yl)-1,3-thiazole-4-carbothioate], for which the chromatographic logP stood at 4.

As to `Cc1cc(C(F)(F)F)nn1CC(=O)N1CCC(c2nc(C(=O)SC3CCCCC3)cs2)CC1` [compound 76, S-Cyclohexyl 2-(1-{[5-methyl-3-(trifluoromethyl)-1H-pyrazol-1-yl]acetyl}piperidin-4-yl)-1,3-thiazole-4-carbothioate], the chromatographic logP worked out at 4.51. The same measure, in the same setting: the value for `Cc1cc(C(F)(F)F)nn1CC(=O)N1CCC(c2nc(C(=O)Sc3cccc4ccccc34)cs2)CC1` [compound 77, S-1-Naphthyl 2-(1-{[5-methyl-3-(trifluoromethyl)-1H-pyrazol-1-yl]acetyl}piperidin-4-yl)-1,3-thiazole-4-carbothioate] was 4.22.

Staying with this series, now noted: reversed-phase (C18) HPLC column; * LC-MS determination in the acidic range, pH 2.7, 0.1% aqueous formic acid and acetonitrile, linear gradient 10% to 95% acetonitrile; read-out: log p.
For `Cc1cc(C(F)(F)F)nn1CC(=O)N1CCC(c2nc(C(=O)SCc3ccc(F)cc3)cs2)CC1` [compound 27, S-(4-Fluorobenzyl) 2-(1-{[5-methyl-3-(trifluoromethyl)-1H-pyrazol-1-yl]acetyl}piperidin-4-yl)-1,3-thiazole-4-carbothioate], the chromatographic logP is 4. Still for that read-out and setting: under `Cc1cc(C(F)(F)F)nn1CC(=O)N1CCC(c2nc(C(=O)SC3CCCCC3)cs2)CC1` [compound 76, S-Cyclohexyl 2-(1-{[5-methyl-3-(trifluoromethyl)-1H-pyrazol-1-yl]acetyl}piperidin-4-yl)-1,3-thiazole-4-carbothioate] stands 4.51; under `Cc1cc(C(F)(F)F)nn1CC(=O)N1CCC(c2nc(C(=O)Sc3cccc4ccccc34)cs2)CC1` [compound 77, S-1-Naphthyl 2-(1-{[5-methyl-3-(trifluoromethyl)-1H-pyrazol-1-yl]acetyl}piperidin-4-yl)-1,3-thiazole-4-carbothioate], 4.22.
